Measured values from ChEMBL document CHEMBL2311517, “Novel route to chaetomellic acid A and analogues: serendipitous discovery of a more competent FTase inhibitor” (Bioorg Med Chem, 2013).
Where a SMILES comes first, the peptide text is derived from it. The star is where a group is joined. Dansyl = CN(C)c1cccc2c(S(=O)(=O)*)cccc12

Tests used:
[1] = Inhibition of yeast farnesyltransferase using dansyl-GCVIA as substrate preincubated for 5 mins measured over 300 secs by continuous fluorescence assay; parameters: species or system Saccharomyces cerevisiae
[2] = organism: Rattus norvegicus; assay: Activity of rat farnesyltransferase
[3] = organism: Rattus norvegicus; assay: Ratio of […] to Km for rat farnesyltransferase
[4] = Inhibition of rat farnesyltransferase using dansyl-GCVIA as substrate preincubated for 5 mins measured over 300 secs by continuous fluorescence assay

| Compound | IC50 [1] | kcat [2] | kcat/Km [3] | IC50 [4] |
| --- | --- | --- | --- | --- |
| CC(C)=CCC/C(C)=C/CC/C(C)=C/C/C(C(=O)O)=C(\C)C(=O)O | 2.4 µM | – | – | – |
| CC[C@H](C)[C@H](NC(=O)[C@@H](NC(=O)[C@H](CS)NC(=O)CNS(=O)(=O)c1cccc2c(N(C)C)cccc12)C(C)C)C(=O)N[C@@H](C)C(=O)O (Dansyl-GCVIA-OH) | – | > 0.2 s⁻¹ | 120000 M⁻¹ s⁻¹ | – |
| CCCCCCCCCCCC/C(C(=O)O)=C(\C)C(=O)O [CHAETOMELLIC ACID C] | 4 µM | – | – | – |
| CCCCCCCCCCCCCCCC/C(C(=O)O)=C(\C)C(=O)O | 65.6 µM | – | – | 2.6 µM |
| C=CCCCCCCC/C(C(=O)O)=C(\C)C(=O)O | 13.4 µM | – | – | 0.49 µM |
| CCCCSCCCCCCCCC/C(C(=O)O)=C(\C)C(=O)O | 3.5 µM | – | – | 0.19 µM |
| CC(C)C[C@H](NC(=O)[C@@H](NC(=O)[C@H](CS)NC(=O)CNS(=O)(=O)c1cccc2c(N(C)C)cccc12)C(C)C)C(=O)N[C@@H](CO)C(=O)O (Dansyl-GCVLS-OH) | – | 0.4 s⁻¹ | 170000 M⁻¹ s⁻¹ | – |
| CCCCCCCCCCCCCC/C(C(=O)O)=C(\C)C(=O)O | 16 µM | – | – | 0.91 µM |
